Read-outs that look alike come from different tables or passages of the source.
Tests used:
[1] = test system: NCI-H522 lung cancer cell line; test: Growth inhibition / cell viability assay (methylene blue), NCI-H522; type: cell-based; conditions: Homo sapiens
Method: (§1) Cell feasibility was examined using methylene blue staining. Cells were plated at a rate of 5000/well in 96 well plates (n=3) respectively and treated the next day. Three days after treatment, cells were fixed/stained in methylene blue saturated in 50% ethanol for 30 min at room temperature. Excessive water was used to wash off extra dye from the plates.

WI38 cells = test: Cell survival assay, normal cell line WI38; type: cell-based; conditions: Homo sapiens, WI-38, FIG. 14A, maximum 30 μM
Description: (§2) This reaffirms the selectivity of TFPAs for cancer cells over normal cells.
(§3) HCT116 human colon cancer cells, NCI-H522 human lung cancer cells, HT1080 fibrosarcoma cells, HeLa cervical cancer cells, U2OS osteosarcoma cells, MDA-MB-231 and MDA-MB-468 breast cancer cells, WI38 diploid human cell line, and human retinal pigment epithelial RPE cells were preserved in Dulbecco's Modified Eagle's medium (Mediatech, Inc.) supplemented with 10% calf serum (Atlanta Biologicals) or 10% fetal bovine serum (Gemini Bio-Products #100-106) and 1000 U/ml of both Penicillin and Streptomycin (Mediatech, Inc.) at 37° C. with 5% CO2. Cell feasibility was examined using methylene blue staining. Cells were plated at a rate of 5000/well in 96 well plates (n=3) respectively and treated the next day. Three days after treatment, cells were fixed/stained in methylene blue saturated in 50% ethanol for 30 min at room temperature. Excessive water was used to wash off extra dye from the plates.

HCT116 cells = test: Growth inhibition / cell viability assay (methylene blue), HCT116; type: cell-based, human; conditions: for IC50: Homo sapiens, HCT-116
Method: as §1

RPE cells = test: Cell survival assay, normal cell line RPE; type: cell-based; conditions: Homo sapiens, FIG. 14A, maximum 30 μM
Description: as §2, §3

[2] = test system: U2OS osteosarcoma cell line; test: Growth inhibition assay (methylene blue), U2OS; type: cell-based; conditions: Homo sapiens, Table 4, unit inferred
Method: as §1

[3] = test system: MDA-MB-231 breast cancer cell line; test: Growth inhibition assay (methylene blue), MDA-MB-231; type: cell-based; conditions: Homo sapiens, Table 4, unit inferred
Method: as §1

[4] = test system: MDA-MB-468 breast cancer cell line; test: Growth inhibition assay (methylene blue), MDA-MB-468; type: cell-based; conditions: Homo sapiens, Table 4, unit inferred
Method: as §1

sixty cell lines [5] = test: NCI 60 cell five-dose assay; type: cell-based; conditions: Total Growth Inhibition
[6] = test system: HT1080 fibrosarcoma cell line; test: Growth inhibition assay (methylene blue), HT1080; type: cell-based; conditions: Homo sapiens, HT-1080, Table 4, unit inferred
Method: as §1

[7] = test system: HeLa cervical cancer cell line; test: Growth inhibition assay (methylene blue), HeLa; type: cell-based; conditions: Homo sapiens, Table 4, unit inferred
Method: as §1

PARP1 = test: Western blot analysis of PARP1 cleavage in HCT116 cells; type: cell-based, human; conditions: HCT116 cells treated for 24 h; measure of caspase dependent cell death
Method: FIG. 13: Western blot analysis of PARP1 cleavage. HCT116 cells were treated with compounds 83, 84, and 85 at the indicated concentrations for 24 hr. Western blots were probed with an antibody that recognizes a cleaved form of PARP (Cell Signaling Technology 5626) as a measure of caspase dependent cell death.
To determine whether the compounds herein induced apoptosis, the enzyme Poly (ADP ribose) polymerase 1 (PARP1) was analyzed by western blotting. Caspase-dependent proteolytic cleavage of PARP1 is one of the hall marks of apoptosis and antibodies that specifically recognize the cleavage products are available. […] HCT116 cells were treated with compounds 83, 84, and 85 for 24 h.
(§4) NCI-H522 cell pellets obtained were lysed using lysis buffer containing 50 mM Tris (pH 7.4), 150 mM NaCl, 0.5% NP-40, (supplemented with 1 μg/ml aprotinin, 2 μg/ml leupeptin, 1 μg/ml pepstatin A, 1 mM DTT, and […]) for 30 minutes on ice and centrifuged at 13×10^3 g for 25 minutes at 4° C. The protein levels of the obtained lysates were normalized using BCA Protein Assay Kit (Pierce) and separated by SDS-polyacrylamide gel electrophoresis (12.5% acrylamide). Transfer to polyvinylidene difluoride membranes (Millipore) was followed by obstruction of membranes with blocking buffer containing 5% (w/v) non-fat dry milk dissolved in PBST [1×PBS containing 0.05% (v/v) Tween 20] for 1 hour at room temperature. Membranes were then incubated with corresponding primary antibodies overnight at 4° C. The membranes were then washed (3×15 min each) with PBST and incubated with secondary antibodies conjugated to horse-radish peroxidase, obtained from Biorad, and used at a dilution of 1:10,000. Bound antibodies were detected using enhanced chemiluminescence (Biorad).

sixty cell lines [8] = test: NCI 60 cell one-dose assay; type: cell-based; conditions: result in words
[9] = test system: acetyl-H3 and pan-acetyl-lysine; test: Hyperacetylation assay by western blot; type: cell-based, human; conditions: […], 5, and 10 μM, dose dependent
Method: The hallmark of HDAC inhibition is the hyperacetylation of several proteins which are substrates for HDACs. Thus, histone H3 hyperacetylation assay of some active compounds was carried out by western blot using antibodies for Histone H3 and pan-acetyl lysine.
as §4

[10] = stated in the method as reason for the sampling interval; cited from earlier work
[11] = S9 fraction metabolic stability assay (LC-ESI-MS); type: in vitro ADME; conditions: human liver S9 fraction
Description: Previous studies established that trifluoromethyl ketones are metabolically unstable and reduced in vivo to trifluoromethyl alcohols (TFMAs). This metabolic reduction caused a major loss in activity. […] It was believed that in TFPAs, the hydrate form of the ketone is stabilized compared to TFMKs, and is therefore less susceptible to reductive metabolism. […] Metabolic stability studies are primarily conducted using liver microsomal assays, as the predominant cytochrome P450 enzymes present in them are responsible for the metabolism of most xenobiotics in the human body. However, P450 transformations are mostly oxidative in nature, precluding their use to assess the stability of ketone drugs against reductive metabolism. […] Thus, using a liver extract containing both cytosol and microsomal enzymes would be more appropriate for this assay. This was accomplished by using the S9 fraction, which is basically the supernatant obtained from centrifugation of hepatocytes at 9000 g and contains both liver cytosol and microsomal enzymes. LC-ESI-MS was used to monitor the reduction of TFPA 60 over time and it was compared with TFMK 91.
A protocol similar to the one previously employed by others using Human Liver S9 fractions instead of liver microsomes was used for the metabolism studies. The assay was initiated by incubating a mixture of the substrate (0.02 mM), buffer (0.1M), and NADPH (1 mM) at 37° C. for ten minutes, followed by addition of the S9 fraction (0.5 mg) to the mixture and gentle mixing. The total volume of the reaction mixture was maintained at 1 mL. […] The reactions in the aliquots were terminated by adding an equal volume of ethyl acetate, mixing thoroughly, and transferring into micro centrifuge tubes. They were vortexed for 2 minutes and then subjected to centrifugation at 10,000×g for 15 minutes to remove the proteins. The top organic layers were extracted and evaporated under reduced pressure. The organic residues from the aliquots were dissolved in methanol first, then diluted 1:1 with water, and analyzed using LC-ESI-MS. A 450 μL aliquot of compound 60 with concentration of 0.02 mM contains 9 nanomoles, which after evaporation, was dissolved in 500 μL of methanol to give 18 μM in concentration of 60. This was diluted 1:1 with water to give a final concentration of 9 μM, which was used for LC-ESI-MS. Similarly, 200 μL of TFMK 91 at a concentration of 0.02 mM contains 4 nanomoles, which after removing ethyl acetate, and dissolving in 250 μL of methanol gives 16 μM concentration of 91. This was diluted 1:1 with water to give 8 μM final concentration for LC-ESI-MS.
The solvent flow rate was 0.2 mL/min, and the sample injection volume was 20 μL. […]

[12] = cap group SAR, HCT116 cell line, maximum concentration of 40 μM, read-out: IC50
[13] = Table 4, growth inhibition, unit inferred, read-out: IC50 H522

SMILES	IC50 (HCT116 cells; [12])	IC50 [2]	IC50 [3]	IC50 [1, 13]	IC50 [4]	IC50 [6]	TGI (sixty cell lines [5])	PARP1 cleavage (cleaved PARP1) (PARP1)	also measured
COc1ccc(NC(=O)CCCCCCNC(=O)C(O)(O)C(F)(F)F)cc1 [Compound 55, N-(4-methoxyphenyl)-7-(3,3,3-trifluoro-2,2-dihydroxypropanamido)heptanamide]	4520 nM	–	–	–	–	–	–	–	IC50 ([1]; cancer vs normal cells study, FIG. 14A, maximum 30 μM, read-out: IC50 NCI-H522): 8050 nM; IC50 (WI38 cells): > 30000 nM; IC50 (HCT116 cells; cancer vs normal cells study, FIG. 14A, maximum 30 μM, read-out: IC50 HCT116): 3130 nM; cell survival HCT116 (HCT116 cells; maximum concentration of 30 μM, FIG. 14B): < 20%; IC50 (RPE cells): > 30000 nM
O=C(CCCCCCNC(=O)C(O)(O)C(F)(F)F)Nc1nc2ccccc2s1 [Compound 61, N-(benzo[d]thiazol-2-yl)-7-(3,3,3-trifluoro-2,2-dihydroxypropanamido)heptanamide]	2370 nM	1410 ± 180 nM	1830 ± 350 nM	2860 ± 360 nM	1310 ± 180 nM	2650 ± 210 nM	21370 nM	–	IC50 [7]: 1520 ± 230 nM
COc1ccc(-c2cnc(NC(=O)CCCCCCNC(=O)C(O)(O)C(F)(F)F)s2)cc1 [Compound 84, N-(5-(4-methoxyphenyl)thiazol-2-yl)-7-(3,3,3-trifluoro-2,2-dihydroxypropanamido)heptanamide]	–	–	–	–	–	–	8510 nM	Absence of PARP1 cleavage	cytostatic / cytotoxic activity in NCI 60 assays (sixty cell lines [8]): cytotoxic effects; levels of acetylated H3 [9]: increased levels; levels of pan-acetyl-lysine [9]: increased levels

Now from value to compound, other results behind:

IC50 (HCT116 cells; [12])	IC50 [2]	IC50 [3]	IC50 [1, 13]	IC50 [4]	IC50 [6]	SMILES	TGI (sixty cell lines [5])	PARP1 cleavage (cleaved PARP1) (PARP1)	also measured
2180 nM	3290 ± 460 nM	810 ± 100 nM	3230 ± 410 nM	3650 ± 110 nM	2280 ± 470 nM	COc1ccc2sc(NC(=O)CCCCCCNC(=O)C(O)(O)C(F)(F)F)nc2c1 [Compound 83, N-(5-methoxybenzo[d]thiazol-2-yl)-7-(3,3,3-trifluoro-2,2-dihydroxypropanamido)heptanamide]	12300 nM	Dose-dependent elevation of cleaved PARP1 was detectable	–
10100 nM	–	–	–	–	–	O=C(CCCCCCC(=O)C(F)(F)F)Nc1ccccc1 [Compound 91, reference compound]	–	–	half-life [10]: less than 30 minutes; time to complete disappearance (metabolic reduction) of parent M+1 peak ([11]; NADPH, 37° C., LC-ESI-MS, aliquots every 15 minutes): ≤ 15 min; metabolic reduction to the alcohol ([11]; result in words): quantitative biological reduction

Source: patent publication US20240360089A1, “Metabolically Stable HDAC Inhibitors with Trifluoromethylpyruvamide as Metal-Binding Group” (The University of Toledo, priority 2023, published 2024)
